Assay results taken from the supplement of paper PMC10307832.

What was measured:
Assay in all cases: relative viability (nuclei count vs DMSO), 5 days (fraction); higher = more cells survive
BI-D1870 + Foretinib = compound: CC(C)CCN1c2nc(Nc3cc(F)c(O)c(F)c3)ncc2N(C)C(=O)C1C [BI-D1870] + COc1cc2c(Oc3ccc(NC(=O)C4(C(=O)Nc5ccc(F)cc5)CC4)cc3F)ccnc2cc1OCCCN1CCOCC1 [Foretinib] (partner 0.25 µM)
Procedure, shortened: (§1)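 Lung cancer cell lines were seeded in 1536-well plates and dosed by pin tool the next day, with either a single drug or a fixed anchor-drug dose combined with five library-drug doses (not always all listed) spaced in √10 steps. Five days later, one step fixed the cells and stained their nuclei (final 0.05% Triton X-100, 1% formaldehyde, 1 ug/ml Hoechst), and nuclei were counted on 4× images. Relative viability is the nuclei count in treated wells divided by the count in vehicle wells, and each value is the median of duplicate plates.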

BI-D1870 + Pemetrexed = compound: CC(C)CCN1c2nc(Nc3cc(F)c(O)c(F)c3)ncc2N(C)C(=O)C1C [BI-D1870] + Nc1nc2[nH]cc(CCc3ccc(C(=O)N[C@@H](CCC(=O)O)C(=O)O)cc3)c2c(=O)[nH]1 [Pemetrexed] (partner 0.2 µM)
Procedure, shortened: as §1

Zebularine + Bortezomib = compound: O=c1ncccn1[C@@H]1O[C@H](CO)[C@@H](O)[C@H]1O [Zebularine] + CC(C)C[C@H](NC(=O)[C@H](Cc1ccccc1)NC(=O)c1cnccn1)B(O)O [Bortezomib] (partner 0.002 µM)
Procedure, shortened: as §1

Zebularine + Crizotinib = compound: O=c1ncccn1[C@@H]1O[C@H](CO)[C@@H](O)[C@H]1O [Zebularine] + C[C@@H](Oc1cc(-c2cnn(C3CCNCC3)c2)cnc1N)c1c(Cl)ccc(F)c1Cl [Crizotinib] (partner 1 µM)
Procedure, shortened: as §1

UMC-11
relative viability (BI-D1870 + Foretinib; first compound 0.04 µM): 1.1 | relative viability (BI-D1870 + Foretinib; first compound 0.1265 µM): 0.986 | relative viability (BI-D1870 + Foretinib; first compound 0.4 µM): 1.11 | relative viability (BI-D1870 + Foretinib; first compound 1.265 µM): 0.897 | relative viability (BI-D1870 + Foretinib; first compound 4 µM): 0.198 | relative viability (BI-D1870 + Pemetrexed; first compound 0.04 µM): 0.812 | relative viability (BI-D1870 + Pemetrexed; first compound 0.1265 µM): 0.751 | relative viability (BI-D1870 + Pemetrexed; first compound 0.4 µM): 0.777 | relative viability (BI-D1870 + Pemetrexed; first compound 1.265 µM): 0.779 | relative viability (BI-D1870 + Pemetrexed; first compound 4 µM): 0.277 | relative viability (Zebularine + Bortezomib; first compound 1 µM): 0.728 | relative viability (Zebularine + Bortezomib; first compound 3.162 µM): 0.844 | relative viability (Zebularine + Bortezomib; first compound 10 µM): 0.45 | relative viability (Zebularine + Bortezomib; first compound 31.62 µM): 0.538 | relative viability (Zebularine + Bortezomib; first compound 100 µM): 0.297 | relative viability (Zebularine + Crizotinib; first compound 1 µM): 0.666 | relative viability (Zebularine + Crizotinib; first compound 3.162 µM): 0.489 | relative viability (Zebularine + Crizotinib; first compound 10 µM): 0.397 | relative viability (Zebularine + Crizotinib; first compound 31.62 µM): 0.374 | relative viability (Zebularine + Crizotinib; first compound 100 µM): 0.343
